Measured values as given in ChEMBL document CHEMBL1201862, “PubChem BioAssay data set” (2004).
Calls of active or inactive are those of the source. For most assays here, no stated cut-off is given here; in the data, actives have a measured EC50 and inactives only a lower limit.

What was measured:
[1] = Luminescence Cell-Based Dose Response HTS to Identify Activators of Luciferase Translation or Activity in H4 […] Cells. [Related pubchem assays: 1829 (Project Summary), 1814 (Primary HTS)]; type: functional
[2] = Luminescence Cell-Based Dose Confirmation HTS to Identify Activators of 5'UTR Stem-Loop Driven Alpha-Synuclein mRNA Translation in H4 Neuroglioblastoma Cells. [Related pubchem assays: 1829 (Project Summary), 1814 (Primary HTS)]; type: functional
[3] = system: H4; test: Luminescence Cell-Based Dose Response HTS to Identify Activators of 5'UTR Stem-Loop Driven Prion Protein mRNA Translation in H4 Neuroglioblastoma Cells. [Related pubchem assays: 1829 (Project Summary), 1814 (Primary HTS)]; type: functional; settings: Homo sapiens
[4] = cells; type: functional
[5] = viability of uninfected HEp-2 cells – cell-based, HTS, cytotoxicity control for RSV inhibitor project, dose response (AID 2410); type: functional; settings: human respiratory syncytial virus
[6] = target: T1, Calpain-2 catalytic subunit (Sus scrofa, UniProt P43367); test: m-calpain protease blockers, concentration series – biochemical, fluorogenic peptide substrate, dose response (AID 1420); type: functional
T1 sequence (P43367 whole entry): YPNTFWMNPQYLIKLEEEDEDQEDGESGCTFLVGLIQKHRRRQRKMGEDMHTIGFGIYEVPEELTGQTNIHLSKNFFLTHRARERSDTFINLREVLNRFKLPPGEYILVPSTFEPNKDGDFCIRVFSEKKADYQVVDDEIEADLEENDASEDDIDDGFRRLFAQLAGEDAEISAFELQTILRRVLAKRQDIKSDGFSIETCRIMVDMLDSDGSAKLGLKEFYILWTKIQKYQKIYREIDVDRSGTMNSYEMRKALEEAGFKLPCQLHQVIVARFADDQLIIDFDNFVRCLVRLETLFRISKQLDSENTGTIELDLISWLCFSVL

[7] = DRD fibroblast viability loss – cell-based, non-viral oncogenic, luminescence, dose response (AID 1934); type: functional; settings: Homo sapiens
[8] = system: BJ; test: cells; type: functional, cell-based; settings: Homo sapiens
[9] = system: BJ; test: BJ-TERT fibroblast viability loss – cell-based, RAS-independent, luminescence, dose response (AID 1933); type: functional; settings: Homo sapiens
[10] = system: BJ; test: BJ-TERT-LT-ST fibroblast viability loss – cell-based, RAS-independent, luminescence, dose response (AID 1935); type: functional; settings: Homo sapiens;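 further: BJ fibroblasts immortalized with TERT plus LT and ST oncogenes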
[11] = fluconazole-exposed Candida albicans growth modulators – fluorescence, retest, confirmation (AID 2467); type: functional, cell-based
[12] = Trypanosoma cruzi growth suppression in host cells – NIH3T3 host cells, beta-gal luminescence, confirmation (AID 2044); type: functional, cell-based;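 further: intracellular parasites grown in NIH/3T3 mouse fibroblasts as host cells; luminescent beta-galactosidase reporter signal from transgenic T. cruzi replicating inside host cells; inhibitors lower the luminescence signal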
[13] = NIH-3T3 fibroblast cytotoxicity, dose response, cytotoxicity control, cell-based, fluorescence, Alamar Blue, secondary assay (AID 2327); type: functional;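 further: NIH-3T3 mouse fibroblasts cultured with fluconazole at 8 µg/mL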
[14] = NIH3T3 cell viability loss – ATP luminescence, mouse fibroblasts, counter-screen, dose response (AID 2010); type: functional, cell-based;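 further: cells exposed to compound for about 90 hours before reading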
[15] = reduction of Shn3 3'UTR-driven luciferase in osteoblasts – cell-based, Clone20 osteoblasts, firefly luciferase, cherry-picked, dose response (AID 624132); type: functional;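 further: firefly luciferase luminescence from reporter carrying the Shn3 3'UTR in osteoblasts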
[16] = non-specific 3'UTR reporter inhibition in Clone20-Shn3RL – cell-based, Renilla luciferase, cherry-picked, counter-screen for Shn3 inhibitor project, dose response (AID 624133); type: functional
[17] = loss of viability in HepG2 cells – cell-based, CellTiter-Glo, cherry-picked, cytotoxicity control for Shn3 inhibitor project, dose response (AID 624134); type: functional
[18] = viability of PTEN-deleted HCT116 cells – cell-based, HCT116 PTEN knockout, dose response (AID 1047); type: functional;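 further: HCT116 colon tumor cells with PTEN knocked out; cells exposed to compound for 60 hours before readout; potency for loss of cell viability measured by luminescence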
[19] = target: Paired box protein Pax-8 (Homo sapiens, UniProt Q06710); test: PAX8 transcriptional activity inhibition in RMG-I – RMG-I cells, luciferase, cherry-pick, dose response (AID 687027); type: functional, cell-based;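 further: luciferase reporter driven by Pax8 target thyroperoxidase promoter measured by SteadyGlo luminescence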
Paired box protein Pax-8, sequence (Q06710 whole entry): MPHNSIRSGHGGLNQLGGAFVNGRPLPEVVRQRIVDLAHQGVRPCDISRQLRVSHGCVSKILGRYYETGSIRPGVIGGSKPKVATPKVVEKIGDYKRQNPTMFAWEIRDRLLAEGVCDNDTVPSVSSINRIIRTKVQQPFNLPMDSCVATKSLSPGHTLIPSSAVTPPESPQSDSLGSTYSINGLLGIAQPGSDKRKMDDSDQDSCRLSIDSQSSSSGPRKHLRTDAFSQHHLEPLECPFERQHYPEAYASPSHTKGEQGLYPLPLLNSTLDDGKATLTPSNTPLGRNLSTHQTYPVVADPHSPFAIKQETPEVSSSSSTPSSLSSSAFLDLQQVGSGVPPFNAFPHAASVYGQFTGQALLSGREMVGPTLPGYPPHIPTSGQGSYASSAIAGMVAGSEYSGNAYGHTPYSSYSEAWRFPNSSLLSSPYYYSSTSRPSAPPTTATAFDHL

## C/C(=N\NC(=O)c1c(Cl)cnn1C)c1ccc(NC(=O)c2ccc(Br)o2)cc1
[1]
  EC50: 6.56 µM (active)
[2]
  EC50: 6.11 µM (active)
[3]
  EC50: 28.4 µM (active)

## COC(=O)COc1cccc(NC(=O)c2ccc(Cl)cc2)c1
[4]
  IC50: 2.8 µM (active)

## Cc1ccccc1N1CCN(Cc2ccc([N+](=O)[O-])o2)CC1
[4]
  IC50: 0.73 µM (active)

## CC(=O)O[C@@H]1[C@@H](O)[C@@H](O)[C@H](Oc2c(-c3ccc(O)cc3)oc3c(CC=C(C)C)c(O)cc(O)c3c2=O)O[C@H]1C
[5]
  CC50: 16.1 µM (active)

## O=C1C[N+]([O-])=Cc2[nH]c3ccccc3c2N1c1ccc([N+](=O)[O-])cc1
[6]
  IC50: 4.76 µM (not active)

## CCCC1=Nc2cc(C(=O)NCCCOC(C)C)ccc2Sc2ccccc21
[7]
  EC50: 5.1 µM (active)
[8]
  EC50: 37.8 µM (active)
[9]
  EC50: 9.44 µM (inconclusive)
[10]
  EC50: 17.2 µM (inconclusive)

## CCCCOC(=O)C1CCCC(C(=O)OCCCC)N1 (stereo not drawn)
[4]
  IC50: 16.6 µM (active)

## CCOc1ccc(NC2=NC(=O)CS2)cc1
[5]
  CC50: 24.5 µM (active)

## Cc1ccc(S(=O)(=O)NC(=Nc2ccccn2)c2ccc(Cl)cc2)cc1
[1]
  EC50: 34.8 µM (active)
[2]
  EC50: > 120 µM (not active)
[3]
  EC50: > 120 µM (not active)

## CCOc1ccc2nc(NC(=O)CSc3nc(SC)ns3)sc2c1
[1]
  EC50: 8.43 µM (active)
[2]
  EC50: 12.7 µM (active)
[3]
  EC50: 47.5 µM (active)

## COc1ccc(C(=O)CCc2ccccc2O)c(OC)c1
[5]
  CC50: 41.8 µM (active)

## Oc1nc(-c2ccccn2)nc(C(F)(F)F)c1Br
[11]
  EC50: 0.596 µM (active)
[12]
  EC50: 1.86 µM (active)
[13]
  EC50: > 150 µM (inactive)
[14]
  EC50: 10.9 µM (active)

## N#Cc1cc(-c2ccccc2)[nH]c1-c1nccc2ccccc12
[15]
  AC50: 3.42 µM (active)
[16]
  AC50: 9.62 µM (active)
[17]
  AC50: 48.7 µM (active)

## O=C1C(Cl)=C(NCCCN2CCOCC2)C(=O)N1CCc1ccccc1
[1]
  EC50: 15.3 µM (active)
[2]
  EC50: 6.1 µM (active)
[3]
  EC50: 45.1 µM (active)

## CCOc1ccc(NC(=O)C(c2ccccn2)N(C(=O)CCl)c2ccc(OC)cc2)cc1 (stereo not drawn)
[7]
  EC50: > 150 µM (not active)
[8]
  EC50: > 150 µM (not active)
[9]
  EC50: > 150 µM (not active)
[10]
  EC50: > 150 µM (inconclusive)

## CCCCNC(=O)Nc1c(C(=O)OC)[nH]c2ccc(C)cc12
[18]
  EC50: 37.7 µM (active)

## CC(C)(C)c1ccc(C(=O)C2CCCN(Cc3ccon3)C2)cc1 (stereo not drawn)
[1]
  EC50: 18.3 µM (active)
[2]
  EC50: 14.6 µM (active)
[3]
  EC50: 17.2 µM (active)

## CCCOc1cccc(-c2nnc(NC(=O)c3ccco3)s2)c1
[11]
  EC50: 1.91 µM (active)
[13]
  EC50: 15.9 µM (active)

## Cc1cccc(OCCNc2cc(N3CCN(CCO)CC3)ccc2[N+](=O)[O-])c1
[5]
  CC50: 15.6 µM (active)

## COc1ccc(C(=O)Nc2ccc(S(=O)(=O)NC(C)(C)C)cc2)cc1[N+](=O)[O-]
[6]
  IC50: 4.14 µM (not active)

## CNc1nccc(-c2ccc(F)cc2)c1C#N
[5]
  CC50: 47.5 µM (active)

## CN1C(=O)/C(=C\C(=O)c2cccs2)c2ccccc21
[11]
  EC50: > 38 µM (not active)
[19]
  AC50: 23.1 µM (active)
[13]
  EC50: > 150 µM (inconclusive)

## CCn1c(=O)[nH]c2ccccc2/c1=N/C(=O)c1ccc(F)cc1
[5]
  CC50: 28 µM (active)

## COc1ccc(C(NC(=O)C(C)C)c2c(O)ccc3ccccc23)cc1OC (stereo not drawn)
[6]
  IC50: 18.4 µM (not active)
